This is an account of results in PubChem BioAssay (NCI).

The structures appear in SMILES notation.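 How tested: cells in 96-well plates exposed to compound for 48 hours at five concentrations. Abbreviation: GI50, concentration required for 50% inhibition of growth. Definition used: TGI = concentration required for complete inhibition of growth.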

As a reminder, the GI50 is the concentration at which growth is held to half of that of the control. What is called TGI is the concentration at which net growth stops.

Test systems include NCI-H23 lung; KM12 colon; RXF 393 renal; SK-MEL-28 melanoma; ACHN renal; CCRF-CEM leukemia; COLO 205 colon; SN12C renal; LOX IMVI melanoma; A498 renal.
What all share (assay): DTP human tumour cell line panel, 48 h

With `CCN(CC)CCCNc1ccc(C)c2sc3ccccc3c(=O)c12`, the GI50 in the test on NCI-H23 lung was 1.75 µM; in the test with KM12 colon it was 1.11 µM; in the test with RXF 393 renal, 0.446 µM; in the test with SK-MEL-28 melanoma, 0.201 µM; in the test with ACHN renal, 0.869 µM; with CCRF-CEM leukemia, 0.96 µM. Also, the GI50 was 0.189 µM in the test on COLO 205 colon, 1.09 µM in the test with SN12C renal and 0.423 µM with LOX IMVI melanoma. The TGI in the test with NCI-H23 lung amounted to 5.04 µM; in the test on KM12 colon, 2.74 µM; with RXF 393 renal, 1.76 µM; with SK-MEL-28 melanoma, 0.435 µM; in the test on ACHN renal, 2.31 µM; in the test on CCRF-CEM leukemia, 2.82 µM. Also, the TGI with COLO 205 colon was found to be 0.384 µM; in the test with SN12C renal, 7.51 µM; in the test on LOX IMVI melanoma it was 1.58 µM.

For `COC(=O)OC1C(O[C@H]2C[C@H]3[C@@H]4CC=C5C[C@@H](O)CC[C@]5(C)[C@H]4CC[C@]3(C)[C@H]2[C@H](C)C(=O)CCC(C)C)OCC(O)C1OC1OCC(O)C(O)C1OC(=O)c1ccc(OC)cc1` (some centres not stated), the GI50 with NCI-H23 lung was 0.138 µM; with KM12 colon, 0.039 µM; with RXF 393 renal, below 0.00275 µM; in the test on SK-MEL-28 melanoma it was 0.0043 µM; in the test with ACHN renal, 0.0721 µM; in the test on COLO 205 colon, 0.034 µM. Besides, the GI50 was 1.46 µM in the test with SN12C renal and below 0.00275 µM in the test on A498 renal. In addition, the TGI was 5.94 µM in the test with NCI-H23 lung; 9.86 µM in the test on KM12 colon; 0.00948 µM in the test with RXF 393 renal; 0.0161 µM in the test on SK-MEL-28 melanoma; above 27.5 µM with ACHN renal; 0.253 µM with COLO 205 colon. Also, the TGI is above 27.5 µM in the test with SN12C renal and 0.0108 µM with A498 renal.

As to `NNC(=O)C(=O)N/N=C1/CCCC1C(=O)CCC(=O)Nc1ccc(Cl)cc1` (configuration not stated), the TGI in the test on NCI-H23 lung, in the test with KM12 colon, in the test on RXF 393 renal, in the test with SK-MEL-28 melanoma, in the test on ACHN renal and with CCRF-CEM leukemia was above 100 µM each time. In addition, the TGI in the test on COLO 205 colon, in the test with SN12C renal and in the test on A498 renal was above 100 µM throughout.

`COCC([C@@H](O)C(O)C(=O)NCC[C@@H](C)c1nc(/C=C/CC2OC3(C[C@H](O)C2C)OC(C(C[C@H](O)C(C)[C@H](O)C(C)/C=C(C)/C(C)=C/C=C/C(C)=C/C#N)OC)[C@@H](OP(=O)(O)O)C3(C)C)co1)N(C)C` (some centres not stated): the TGI came out at 0.0021 µM in the test on NCI-H23 lung; 0.000331 µM in the test on KM12 colon; 0.000323 µM in the test with SK-MEL-28 melanoma; 0.000394 µM with ACHN renal; 0.000309 µM in the test on COLO 205 colon; 0.00034 µM with SN12C renal. Besides, the values for the TGI with LOX IMVI melanoma and with A498 renal were 0.000561 µM and 0.00333 µM, respectively.

Turning to `Cc1ccc2c(c1)CN1c3ccc(C)cc3CN2C1c1ccccc1O`, the TGI in the test with NCI-H23 lung was above 100 µM; in the test with KM12 colon, above 100 µM; in the test with RXF 393 renal, 61.2 µM; in the test with SK-MEL-28 melanoma, above 100 µM; in the test with ACHN renal, above 100 µM; in the test with CCRF-CEM leukemia, above 100 µM. Moreover, the TGI in the test with COLO 205 colon, with SN12C renal and in the test with LOX IMVI melanoma was above 100 µM in each case.

For the compound `Nc1ncnc2c1N=C(c1ccc3c(c1)OCO3)CC(c1ccc(Cl)cc1)N2` (configuration not stated), the GI50 is 21.4 µM with NCI-H23 lung; 2.03 µM in the test on KM12 colon; 2.51 µM in the test on RXF 393 renal; 30.4 µM in the test with SK-MEL-28 melanoma; 8.25 µM with ACHN renal; 15 µM in the test with COLO 205 colon. Moreover, the GI50 in the test with SN12C renal is 80.4 µM; in the test on LOX IMVI melanoma, 10.1 µM; in the test on A498 renal, 5.93 µM. Besides, the TGI in the test with NCI-H23 lung is above 100 µM; in the test with KM12 colon it was 30.7 µM; in the test with RXF 393 renal, 13.5 µM; with SK-MEL-28 melanoma, above 100 µM; in the test with ACHN renal, above 100 µM; with COLO 205 colon it was above 100 µM. In addition, the TGI in the test on SN12C renal was above 100 µM; in the test on LOX IMVI melanoma, 33 µM; in the test on A498 renal, above 100 µM.

`N#CC(C(=O)C(=O)Nc1c(Cl)cccc1Cl)c1ccccc1` (configuration not stated): the GI50 with NCI-H23 lung, in the test with KM12 colon, in the test with SK-MEL-28 melanoma, in the test on ACHN renal, in the test on CCRF-CEM leukemia and in the test with COLO 205 colon was above 100 µM in each case. Besides, the GI50 in the test on SN12C renal, in the test with LOX IMVI melanoma and in the test with A498 renal was above 100 µM each time. In addition, the total growth inhibition concentration (TGI) in the test with NCI-H23 lung, in the test with KM12 colon, in the test on SK-MEL-28 melanoma, in the test with ACHN renal, with CCRF-CEM leukemia and with COLO 205 colon was above 100 µM throughout. Moreover, the TGI in the test with SN12C renal and in the test on A498 renal was above 100 µM each time.

Turning to `Cc1nc(N)nc(CCC(=O)Nc2cccc(C(F)(F)F)c2)c1-c1ccc(Cl)cc1`, the TGI with NCI-H23 lung, with KM12 colon, in the test on RXF 393 renal, with SK-MEL-28 melanoma, with ACHN renal and with CCRF-CEM leukemia was above 100 µM each time. In addition, the concentration for total growth inhibition (TGI) in the test on COLO 205 colon, in the test with SN12C renal and with A498 renal was above 100 µM each time.

For `COc1cc(Nc2cnc3ccc(C(F)(F)F)cc3n2)cc(OC)c1OC`, the TGI in the test with NCI-H23 lung, in the test on RXF 393 renal, with SK-MEL-28 melanoma, in the test on ACHN renal, in the test with CCRF-CEM leukemia and with COLO 205 colon was above 100 µM each time. For the same compound, the values for the TGI in the test with SN12C renal and with LOX IMVI melanoma were above 100 µM and 23.2 µM, respectively.

In the case of `FC(F)(F)Oc1cccc(-c2cc(NCCCCCCNc3cc(-c4cccc(OC(F)(F)F)c4)nc4ccc(N5CCCC5)cc34)c3cc(N4CCCC4)ccc3n2)c1`, the GI50 in the test on KM12 colon is 1.74 µM; with RXF 393 renal, 1.65 µM; in the test with SK-MEL-28 melanoma, 1.83 µM; in the test on SN12C renal it was 1.64 µM; in the test on LOX IMVI melanoma, 1.85 µM; in the test with A498 renal, 2.05 µM. For the same compound, the TGI with KM12 colon amounted to 3.27 µM; in the test on RXF 393 renal, 3.22 µM; with SK-MEL-28 melanoma, 3.3 µM; in the test on SN12C renal, 3.06 µM; with LOX IMVI melanoma, 3.54 µM; with A498 renal, 3.57 µM.

Regarding `COc1ccc2sc3c(NCCCN)nc4ccccc4c3c(=O)c2c1`, the GI50 is 1.76 µM in the test with NCI-H23 lung; 1.82 µM in the test on KM12 colon; 1.5 µM in the test with RXF 393 renal; 1.8 µM with SK-MEL-28 melanoma; 1.69 µM in the test with ACHN renal; 1.79 µM in the test with CCRF-CEM leukemia. In addition, the values for the GI50 with COLO 205 colon, in the test on SN12C renal and with A498 renal were 1.8 µM, 1.63 µM and 1.52 µM, respectively. Besides, the TGI with NCI-H23 lung was 3.43 µM; in the test with KM12 colon, 3.36 µM; in the test on RXF 393 renal, 2.9 µM; with SK-MEL-28 melanoma, 3.28 µM; in the test on ACHN renal, 3.07 µM; in the test with CCRF-CEM leukemia, 3.66 µM. Besides, the values for the TGI in the test on COLO 205 colon, in the test on SN12C renal and in the test on A498 renal were 3.71 µM, 3.11 µM and 5.59 µM, respectively.
